From patent US4595688A, “Hexahydropyrrolo[2,1-a]isoquinoline derivatives and antidepressant use thereof” (priority 1984, dated 1986)
Like-named read-outs stand apart in the source and are kept apart here.

Test system: depressant effects of tetrabenazine (TBZ)
Test: tetrabenazine (TBZ) antagonism assay in mice: exploratory activity (EA) and reversal of ptosis (Pt)
Assay type: in vivo
Conditions: for ED50: Mus musculus, ip; for percent inhibition at a certain dose, EA (exploratory activity): TBZ 32 mg/kg i.p.
Procedure: The utility of the novel compounds of this patent is based on a standard test for antidepressant agents involving antagonism of the depressant effects of tetrabenazine (TBZ). This is the "classical" tetrabenazine antagonism assay described in U.S. Pat. No. 3,787,577. In this test, mice are injected with a test compound 30 minutes prior to the injection of 32 mg/kg i.p. of TBZ, a drug which decreases normal exploratory activity and induces ptosis. After 30 minutes, the mice are tested for two parameters: the presence of normal exploratory activity (EA) and reversal of ptosis (Pt). A control group of mice is given only 32 mg/kg i.p. of TBZ. The biological activity of the novel compounds of this invention may be understood by some representative, nonlimiting examples, presented in Tables I and II.
Tables I lists the compounds tested by a compound number, structural formula, HX or acid addition salt form in which the compound was tested, test data, and internal code number (McN No.). Table II names the various Table I compounds.
*ED50 given in mg/kg for each parameter (except for percent
inhibition at a certain dose in mg/kg, given for four examples: XLIV, XLV

[1] = mice, i.p., compound 30 minutes prior to 32 mg/kg i.p. TBZ, normal exploratory activity, read-out: TBZ ED50, EA (exploratory activity)
[2] = mice, i.p., compound 30 minutes prior to 32 mg/kg i.p. TBZ, reversal of ptosis, read-out: TBZ ED50, Pt (reversal of ptosis)
[3] = read-out: TBZ ED50, EA (exploratory activity)
[4] = read-out: TBZ ED50, Pt (reversal of ptosis)
[5] = mice, i.p., compound 30 minutes prior to 32 mg/kg i.p. TBZ, normal exploratory activity
[6] = mice, i.p., compound 30 minutes prior to 32 mg/kg i.p. TBZ, reversal of ptosis

| Structure (SMILES) | ED50 [1] [mg/kg] | ED50 [2] [mg/kg] | further results |
| --- | --- | --- | --- |
| COc1cccc([C@@H]2CN3CCC[C@@H]3c3ccccc32)c1 (relative stereo) [Compound XL, 1,2,3,5,6,10bβ-Hexahydro-6α-(3-methoxyphenyl)pyrrolo[2,1-a]isoquinoline] | ~0.17 | ~0.07 | – |
| Oc1cccc([C@@H]2CN3CCC[C@@H]3c3ccccc32)c1 (relative stereo) [Compound XLI, 3-(1,2,3,5,6,10bβ-Hexahydropyrrolo[2,1-a]isoquinolin-6α-yl)phenol] | > 10 | 0.11 | – |
| Clc1ccc([C@@H]2CN3CCC[C@H]3c3cc(Cl)ccc32)cc1 (relative stereo) [Compound XLII, [6α,10bα]-9-Chloro-6-(4-chlorophenyl)-1,2,3,5,6,10b-hexahydropyrrolo[2,1-a]isoquinoline] | 100 | 37 | – |
| C[C@]12CCCN1C[C@@H](c1ccccc1)c1ccccc12 (relative stereo) [IVb, [6α,10bβ]-1,2,3,5,6,10b-Hexahydro-10b-methyl-6-phenylpyrrolo[2,1-a]isoquinoline] | 9.2 | 3.8 | – |
| C[C@]12CCCN1C[C@@H](c1ccc(F)cc1)c1ccc(F)cc12 (relative stereo) [L, 9-Fluoro-6α-(4-fluorophenyl)-1,2,3,5,6,10b-hexahydro-10bβ-methylpyrrolo[2,1-a]isoquinoline] | 6.1 | 5.6 | – |
| Clc1ccccc1[C@@H]1CN2CCC[C@@H]2c2ccccc21 (relative stereo) [LI, [6α,10bβ]-6-(2-chlorophenyl)-1,2,3,5,6,10b-hexahydropyrrolo[2,1-a]isoquinoline] | – | 0.2 | percent inhibition at a certain dose, EA (exploratory activity) (mice, i.p., @ 60 mg/kg): 37% |
| c1ccc([C@H]2Cc3ccccc3[C@@H]3CCCN23)cc1 (relative stereo) [LII, 1,2,3,5,6,10bα-Hexahydro-5α-phenylpyrrolo[2,1-a]isoquinoline] | – | – | ED50 [3]: ~30 mg/kg; ED50 [4]: 32 mg/kg |
| Oc1cccc([C@@H]2CN3CCC[C@H]3c3ccccc32)c1 (relative stereo) [XLIV, 3-(1,2,3,5,6,10bα-Hexahydropyrrolo[2,1-a]isoquinolin-6α-yl)phenol] | – | 3.1 | percent inhibition at a certain dose, EA (exploratory activity) (mice, i.p., @ 30 mg/kg): 37% |
| FC(F)(F)c1cccc([C@@H]2CN3CCC[C@@H]3c3ccccc32)c1 (relative stereo) [XLIX, 1,2,3,5,6,10bβ-Hexahydro-6α-[(3-trifluoromethyl)phenyl]-pyrrolo[2,1-a]isoquinoline] | 1.2 | 0.43 | – |
| COc1ccc([C@@H]2CN3CCC[C@@H]3c3ccccc32)cc1OC (relative stereo) [XLV, 1,2,3,5,6,10bβ-Hexahydro-6α-(3,4-dimethoxyphenyl)pyrrolo[2,1-a]isoquinoline] | – | 0.14 | percent inhibition at a certain dose, EA (exploratory activity) (mice, i.p., @ 30 mg/kg): 33% |
| C[C@@]1(c2ccccc2)CN2CCC[C@H]2c2ccccc21 (relative stereo) [XLVI, 1,2,3,5,6,10bα-Hexahydro-6-methyl-6α-phenylpyrrolo[2,1-a]isoquinoline] | 22.5 | 16 | – |
| COc1cccc2c1[C@H](c1ccccc1)CN1CCC[C@H]21 (relative stereo) [XLVII, 1,2,3,5,6,10bβ-Hexahydro-7-methoxy-6α-phenylpyrrolo[2,1-a]isoquinoline] | – | – | ED50 [3]: 2.8 mg/kg; ED50 [4]: ~6.5 mg/kg |
| Nc1ccc([C@@H]2CN3CCC[C@H]3c3ccccc32)cc1 (relative stereo) [XLVIII, 4-(1,2,3,5,6,10bα-Hexahydropyrrolo[2,1-a]isoquinoline-6α-yl)benzenamine] | 1.4 | 0.41 | – |
| Clc1ccc([C@@H]2CN3CCC[C@H]3c3ccccc32)cc1Cl (relative stereo) [XXIV, 6α-(3,4-Dichlorophenyl)-1,2,3,5,6,10bα-hexahydropyrrolo[2,1-a]isoquinoline] | – | – | ED50 [3]: ~40 mg/kg; ED50 [4]: 8 mg/kg |
| Clc1ccc([C@@H]2CN3CCC[C@@H]3c3ccccc32)cc1 (relative stereo) [XXIX, [6α,10bβ]-6-(4-Chlorophenyl)-1,2,3,5,6,10b-hexahydropyrrolo[2,1-a]isoquinoline] | – | – | ED50 [3]: 0.27 mg/kg; ED50 [4]: 0.13 mg/kg |
| C[C@@]1(c2ccccc2)CN2CCC[C@@H]2c2ccccc21 (relative stereo) [XXV, 1,2,3,5,6,10bβ-Hexahydro-6-methyl-6α-phenylpyrrolo[2,1-a]isoquinoline] | 27 | 0.7 | – |

| Structure (SMILES) | ED50 [1] [mg/kg] | ED50 [2] [mg/kg] | further results |
| --- | --- | --- | --- |
| Oc1cc2c(cc1O)[C@H]1CCCN1C[C@H]2c1ccccc1 (relative stereo) [XXVI, [6α,10bβ]-1,2,3,5,6,10b-Hexahydro-8,9-dihydroxy-6-phenylpyrrolo[2,1-a]isoquinoline] | 0.87 | 0.33 | – |
| COc1cc2c(cc1OC)[C@H]1CCCN1C[C@H]2c1ccccc1 (relative stereo) [XXVII, [6α,10bβ]-1,2,3,5,6,10b-Hexahydro-8,9-dimethoxy-6-phenylpyrrolo[2,1-a]isoquinoline] | 17 | 7.2 | – |
| c1ccc2c(c1)[C@H](C1CCCCC1)CN1CCC[C@H]21 (relative stereo) [XXVIII, [6α,10β]-6-Cyclohexyl-1,2,3,5,6,10b-hexahydropyrrolo[2,1-a]isoquinoline] | 6.4 | 1.9 | – |
| Clc1ccc([C@@H]2CN3CCC[C@H]3c3ccccc32)cc1 (relative stereo) [XXX, 6α-(4-Chlorophenyl)-1,2,3,5,6,10bα-hexahydropyrrolo[2,1-a]isoquinoline] | – | – | ED50 [3]: 8.1 mg/kg; ED50 [4]: 5.4 mg/kg |
| COc1ccc([C@@H]2CN3CCC[C@H]3c3ccccc32)cc1 (relative stereo) [XXXI, 1,2,3,5,6,10bα-Hexahydro-6α-(4-methoxyphenyl)pyrrolo[2,1-a]isoquinoline] | ~60 | 3 | – |
| Clc1ccc([C@@H]2CN3CCC[C@@H]3c3cc(Cl)ccc32)cc1 (relative stereo) [XXXII, [6α,10bβ]-9-Chloro-6-(4-chlorophenyl)-1,2,3,5,6,10b-hexahydropyrrolo[2,1-a]isoquinoline] | 37 | 4 | – |
| COc1ccc([C@@H]2CN3CCC[C@@H]3c3ccccc32)cc1 (relative stereo) [XXXIII, 1,2,3,5,6,10bβ-Hexahydro-6α-(4-methoxyphenyl)pyrrolo[2,1-a]isoquinoline] | 7 | 0.19 | – |
| COc1ccc2c(c1)[C@@H]1CCCN1C[C@H]2c1ccccc1 (relative stereo) [XXXIX, 1,2,3,5,6,10bα-Hexahydro-9-methoxy-6α-phenylpyrrolo[2,1-a]isoquionline] | ~40 | 8 | – |
| Oc1ccc([C@@H]2CN3CCC[C@@H]3c3ccccc32)cc1O (relative stereo) [XXXV, 4-(1,2,3,5,6,10bβ-Hexahydropyrrolo[2,1-a]isoguinolin-6α-yl)benzene-1,2-diol] | 1.4 | 0.13 | – |
| Oc1ccc([C@@H]2CN3CCC[C@H]3c3ccccc32)cc1O (relative stereo) [XXXVII, 4-(1,2,3,5,6,10bα-Hexahydropyrrolo[2,1-a]isoquinolin-6a-yl)-1,2-benzenediol] | 30 | 1.8 | – |
| O=[N+]([O-])c1ccc([C@@H]2CN3CCC[C@@H]3c3ccccc32)cc1 (relative stereo) [XXXVIII, 1,2,3,5,6,10bβ-hexahydro-6α-(4-nitrophenyl)-pyrrolo[2,1-a]isoquinoline] | 0.51 | 0.15 | – |
| c1ccc([C@@H]2CN3CCC[C@@H]3c3ccccc32)cc1 (relative stereo) [Xb, [6α,10bβ]-1,2,3,5,6,10b-Hexahydro-6-phenyl-pyrrolo[2,1-a]isoquinoline] | 0.34 | 0.07 | – |
| OC1(c2ccccc2)CN2CCCC2c2ccccc21 (single isomer, unassigned) [XLIII, 1,2,3,5,6,10b-Hexahydro-6-phenylpyrrolo[2,1-a]isoquinolin-6-ol] | – | – | TBZ ED50, EA (exploratory activity) [5]: 33 mg/kg; TBZ ED50, Pt (reversal of ptosis) [6]: 5.0 mg/kg |
| OC1(c2ccccc2)CN2CCCC2c2ccccc21 (single isomer, unassigned) [XXXIV, 1,2,3,5,6,10b-Hexahydro-6-phenylpyrrolo[2,1-a]isoquinolin-6-ol] | – | – | TBZ ED50, EA (exploratory activity) [5]: 8.4 mg/kg; TBZ ED50, Pt (reversal of ptosis) [6]: 1.6 mg/kg |
| FC1(c2ccccc2)CN2CCCC2c2ccccc21 (stereo not drawn) [LIII, 6α-Fluoro-1,2,3,5,6,10bα-hexahydro-6-phenylpyrrolo[2,1-a]isoquinoline] | – | – | ED50 [4]: 1.2 mg/kg; percent inhibition at a certain dose, EA (exploratory activity) (mice, i.p., @ 40 mg/kg): 60% |
| Oc1ccc(C2CN3CCCC3c3ccccc32)cc1 (stereo not drawn) [XXXVI, 4-(1,2,3,5,6,10bα-Hexahydropyrrolo[2,1-a]isoquinolin-6α-yl)phenol] | – | – | TBZ ED50, EA (exploratory activity) [5]: ca. 14 mg/kg; TBZ ED50, Pt (reversal of ptosis) [6]: 10 mg/kg |
